Test results reported in PubChem BioAssay (NCI).
Where “and” joins values, the source holds several entries; their conditions need not be identical. Equal entries are not always repeated.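 Cells were grown in 96-well plates and exposed to each compound for 48 hours at five concentrations; endpoints were interpolated linearly between bracketing concentrations, or set to the highest concentration if not reached. GI50 = concentration required for 50% inhibition of growth. Definition used: TGI = concentration required for complete inhibition of growth.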

Legend:
Assay in all cases: inhibition of tumour cell growth, NCI panel, 48 h
[1] = test system: A498 renal
[2] = test system: CAKI-1 renal
[3] = test system: HCT-116 colon
[4] = test system: HCT-15 colon
[5] = test system: HOP-62 NSCLC
[6] = test system: IGROV1 ovarian
[7] = test system: MCF7 breast
[8] = test system: MDA-MB-231 breast
[9] = test system: OVCAR-3 ovarian
[10] = test system: SR leukemia

SMILES	GI50 [1]	TGI [1]	GI50 [2]	TGI [2]	GI50 [3]	TGI [3]	GI50 [4]	TGI [4]	GI50 [5]	TGI [5]	GI50 [6]	TGI [6]	GI50 [7]	TGI [7]	GI50 [8]	TGI [8]	GI50 [9]	TGI [9]	GI50 [10]	TGI [10]
Cc1cc(O)c(C2=NN(c3ccc(S(N)(=O)=O)cc3)C(/C=C/c3ccccc3)C2)cc1Cl (stereo not given)	14.9 µM	42.4 µM	15.3 µM	87.7 µM	2.4 µM	14.6 µM	18.9 µM	> 100 µM	3.94 µM	14.1 µM	4.32 µM	19.8 µM	3.93 µM	16.1 µM	4.56 µM	16.3 µM	11.5 µM	28.4 µM	12.7 µM	33.8 µM
C/C(=N\NC(=S)N1CCCCCC1)c1cccc2cccnc12		54.9 µM		2.42 µM		> 67.1 µM		> 21.9 µM		> 70.7 µM		> 94.1 µM		> 100 µM		> 79 µM		0.567 µM		14.5 µM
CCCCCCNCc1cc(C(C)(C)C)cc(CNCCCCCC)c1O	2.02 µM	3.47 µM	1.69 µM	3.08 µM	1.7 µM	3.07 µM	1.63 µM	3.1 µM	1.58 µM	2.93 µM	1.76 µM	3.36 µM	1.71 µM	3.17 µM	1.35 µM	2.7 µM	1.73 µM	3.15 µM	1.73 µM	3.86 µM
COC(=O)C(C(=O)OC)C(Br)C(Br)C(Br)c1ccccc1 (stereo not given)	15.5 µM	33.1 µM	4.97 µM	17.7 µM	2 µM	3.82 µM	2.83 µM	11 µM	16.9 µM	36 µM	4.92 µM	27 µM	2.43 µM	9.68 µM	13.2 µM	26.8 µM	2.98 µM	7.63 µM	2.47 µM	6.39 µM
CN1CCN(c2nc(-c3csc(-c4cccs4)n3)cc3ccccc23)CC1	1.47 µM	3.27 µM	1.61 µM	3.01 µM	1.76 µM	3.36 µM	1.63 µM	3.15 µM	1.81 µM	3.67 µM	1.57 µM	3.12 µM	1.63 µM	3.2 µM	1.53 µM	3.13 µM	1.84 µM	3.64 µM	3.1 µM	
COc1ccc(C(=O)c2sc3nc(-c4cccs4)ccc3c2N)cc1OC	2 µM	> 100 µM	5.29 µM	> 100 µM	5.06 µM	> 100 µM	2.81 µM	> 100 µM	17.6 µM	> 100 µM	7.72 µM	> 100 µM	2.79 µM	> 100 µM	2.96 µM	29.6 µM	6.78 µM	> 100 µM	3.26 µM	22.7 µM
CC(=O)OC1=CC2(OC(C)=O)CC(C)(C)C1C1C(=O)C=CC(=O)C12 (stereo not given)		> 100 µM		> 100 µM		> 89.4 µM		> 100 µM		> 100 µM		> 100 µM		> 100 µM		> 100 µM		> 100 µM		> 100 µM
Nc1nc(N)c2nc3c(nc2n1)CCCCCCCCCC3	6.9 µM	> 100 µM	3.36 µM	> 100 µM	0.379 µM	> 100 µM	0.891 µM	> 100 µM	4.47 µM	> 100 µM	0.421 µM	> 100 µM	2.96 µM	> 100 µM	6.04 µM	> 100 µM	6.15 µM	> 100 µM	5.03 µM	> 100 µM
CCC(C)C(=O)OCC(=O)c1ccc(-c2ccccc2)cc1 (stereo not given)		> 100 µM		> 100 µM		> 100 µM		43.3 µM		> 100 µM		> 100 µM		> 100 µM		> 100 µM		> 100 µM		> 100 µM
CN(CCCCCl)P(=O)(OCc1ccc([N+](=O)[O-])o1)OCC1OC(n2cnc([N+](=O)[O-])c2N)C(O)C1O (stereo not given)	> 100 µM	> 100 µM	> 100 µM	> 100 µM	> 100 µM	> 100 µM	> 100 µM	> 100 µM	> 100 µM	> 100 µM	> 100 µM	> 100 µM	54.8 µM	> 100 µM	> 100 µM	> 100 µM	> 100 µM	> 100 µM	0.924 µM	> 100 µM
CC1OC(CC(=O)O)CC2=C1C(=O)c1c(O)cccc1C2=O (stereo not given)		2.36 µM		0.334 µM		0.243 µM		0.183 µM		2.94 µM		0.721 µM		0.368 µM		0.707 µM		0.299 µM		0.159 µM
CCc1nc(N)nc(N)c1-c1ccc(Cl)c(N=[N+]=[N-])c1		60.7 µM and 72.6 µM	19.3 µM and 7.29 µM	99.5 µM and > 96.4 µM		> 80.6 µM and 65.1 µM	0.791 µM and 2.06 µM	> 100 µM		> 59.8 µM and 62.8 µM	2.09 µM and 4.22 µM	> 91.2 µM		> 76.1 µM and 56.7 µM		> 67.6 µM and 46.5 µM		64.6 µM and 80 µM	1.3 µM and 2.68 µM	19.2 µM and 43.9 µM
NC1(Cc2ccc(Cl)cc2)CCN(c2ncnc3[nH]ccc23)CC1	0.546 µM	4.58 µM	3.94 µM	19.3 µM	5.18 µM	38.7 µM	5.64 µM	23.9 µM	3.63 µM	17.2 µM	1.01 µM	7.8 µM	4.1 µM	17.6 µM	6.9 µM	26.9 µM	11.7 µM	25 µM	4.2 µM	31.4 µM
O=C1N(Cc2ccccc2Cl)c2ccccc2C12NN=C(c1cccc(Cl)c1)S2 (stereo not given)	1.54 µM	2.95 µM	1.69 µM	3.07 µM	1.62 µM	2.98 µM	1.9 µM	4.19 µM	1.55 µM	2.89 µM	1.78 µM	3.75 µM	1.75 µM	3.37 µM	2.02 µM	4.2 µM	1.83 µM	3.43 µM	2.14 µM	5.67 µM
NC(=O)c1sc(-n2cnc3cc(C(F)(F)F)ccc32)cc1OCc1ccccc1Br	> 25 µM	> 25 µM	> 25 µM	> 25 µM	> 16 µM	> 25 µM	> 25 µM	> 25 µM	6.49 µM	> 16.9 µM	> 25 µM	> 25 µM	> 13.4 µM	> 25 µM	> 17.6 µM	> 25 µM	> 16.7 µM	> 25 µM	> 21.2 µM	> 25 µM
COc1ccc(CCN2CCC(CN(C)Cc3cnn(-c4ccccc4)c3)CC2)cc1	1.58 µM	7.78 µM	5.42 µM	19.9 µM	11.8 µM	25.6 µM	4.49 µM	18.5 µM	15.4 µM	35.6 µM	25.6 µM	> 100 µM	13.9 µM	28.2 µM	3.58 µM	20.1 µM	20.4 µM	52.4 µM	3.92 µM	25.2 µM
COc1ccc(-c2c3c(nc4n[nH]c(-c5ccc(Cl)cc5)c24)-c2ccccc2C(=O)C3=O)cc1	3.72 µM	17.6 µM	1.62 µM	4.38 µM	1.01 µM	2.48 µM			1.56 µM	2.96 µM	1.54 µM	3.22 µM	1.46 µM	5.7 µM	1.6 µM	5.3 µM	1.28 µM	4.33 µM	2.57 µM	> 100 µM
COc1cc2c(c(OC)c1OC)-c1ccc(N=NC(N)=S)c(=O)cc1[C@@H](NC(C)=O)CC2	0.477 µM	3.15 µM	> 24.4 µM	> 100 µM	0.396 µM		6 µM	> 100 µM	1.8 µM	> 100 µM	0.482 µM		0.364 µM	> 100 µM	0.592 µM	> 27.7 µM	0.263 µM	0.642 µM	0.408 µM	> 100 µM
CC1=Nc2c([nH]c(=S)[nH]c2=O)NC(c2c(Cl)cccc2Cl)C1 (stereo not given)		6.68 µM		14.8 µM		1.59 µM		8.67 µM		13.6 µM		5.45 µM		3.12 µM		1.87 µM		4.16 µM		1.68 µM
CN(C)c1cccc(F)c1C(=O)NC(=O)Nc1ccc(Cl)cc1		> 74.8 µM		99 µM		> 100 µM		> 31.5 µM		> 100 µM		> 100 µM		> 100 µM		> 72.1 µM		> 100 µM		> 100 µM
COc1cc(C)c2sc3ccccc3c(=O)c2c1NCCN(C)C	8.83 µM	22.1 µM	5.87 µM	19.4 µM	3.73 µM	13.6 µM	3.13 µM	11.2 µM	7.1 µM	19.6 µM	3.56 µM	14.5 µM	2.4 µM	10.2 µM	3.48 µM	15.9 µM	10.5 µM	23.9 µM	2.79 µM	7.91 µM
COc1cc(Cl)cc(-c2nn(-c3cccc(NC(=O)Nc4ccc(Cl)c(Cl)c4)c3)cc2-c2ccncc2)c1	2.52 µM	90.9 µM	2.38 µM	16.7 µM	2.02 µM	> 100 µM	2.51 µM	31.5 µM	3.38 µM	35.1 µM	4.35 µM	> 100 µM	2.56 µM	13.2 µM	1.87 µM	4.52 µM	1.56 µM	29.4 µM	1.54 µM	5.8 µM
CC(=O)O[C@H]1CC[C@@]2(C)C(=C/C(=N/OCCN3CCCC3)[C@H]3[C@@H]4CC[C@H](OC(C)=O)[C@@]4(C)CC[C@@H]32)C1	76.7 µM	> 100 µM	> 100 µM	> 100 µM	27.8 µM	> 100 µM	20.1 µM	45 µM	29.2 µM	> 100 µM	31.4 µM	> 100 µM	53.4 µM	> 100 µM	38.7 µM	> 100 µM	> 100 µM	> 100 µM	10.4 µM	44.1 µM
Cc1ccc(C2NC(=O)c3ccccc3N2)c(C)c1 (stereo not given)		34.9 µM		18.6 µM		> 100 µM		> 77 µM		> 100 µM		> 100 µM		8.34 µM		> 100 µM		4.68 µM		> 71.8 µM
CCN1C(=NCCO)NS(=O)(=O)c2ccccc21		> 100 µM		> 100 µM		> 100 µM		> 100 µM		> 100 µM		> 100 µM		> 100 µM		> 100 µM		> 100 µM		> 100 µM
COc1ccc2c(c1)-c1nn(CCCN(C)C)c3ccc([N+](=O)[O-])c(c13)N2	0.458 µM and 1.54 µM	3.51 µM and 8.8 µM		4.63 µM and 6.34 µM		4.02 µM and 4.42 µM	0.142 µM and 0.541 µM	2.38 µM and 13.5 µM	0.104 µM and 0.686 µM	1.06 µM and 5.26 µM	0.215 µM and 0.507 µM	3.48 µM and 6.59 µM		2.7 µM and 10.9 µM	0.198 µM and 1.17 µM	2.79 µM and 12 µM	0.339 µM and 1.11 µM	3.95 µM and 7.29 µM	1.27 µM	
C[C@@H](CO)NC(=O)c1cc(-c2ccc(Cl)cc2)nn(-c2cnn(C)c2)c1=O	3.01 µM	62.3 µM	10.4 µM	> 100 µM	19.1 µM	> 100 µM	17.2 µM	> 100 µM	41.8 µM	> 100 µM	20.2 µM	82.1 µM	25.7 µM	> 100 µM	51.5 µM	> 100 µM	45.5 µM	> 100 µM	18.2 µM	> 100 µM
Cc1nc2cc(Nc3nc(Nc4ccc(F)cc4)nc(N4CCOCC4)n3)ccc2n1Cc1ccccc1	1.3 µM	4.57 µM	3.89 µM	18.5 µM	1.98 µM	4 µM	2.19 µM	5.18 µM	9.06 µM	24 µM	2.3 µM	5.87 µM	3.23 µM	13.8 µM	3.36 µM	14.7 µM	2.75 µM	7.14 µM	2.4 µM	7.38 µM
